{
  "source": "paper PMC10056611",
  "about": "“Synthesis and Biological Evaluation of 3-Amino-4,4-Dimethyl Lithocholic Acid Derivatives as Novel, Selective, and Cellularly Active Allosteric SHP1 Activators” (Molecules, 2023)",
  "key": {"[1]": {"test_system": "non-small cell lung cancer (NSCLC) cell line NCI-H1299", "assay": "CCK8 cell viability assay, NCI-H1299", "assay_type": "cell-based", "settings": "Homo sapiens, NCI-H1299 cells, 72 h", "protocol": "(§1) Acute lymphoblastic leukemia (ALL) cell line RS4;11 (2.5 × 10^4 cells per well), acute promyelocytic leukemia (APL) cell line NB4 (1 × 10^4 cells per well), and non-small cell lung cancer (NSCLC) cell line NCI-H1299 (1.5 × 10^3 cells per well) were seeded into 96-well plates. After treatment with different concentrations of drugs, the cells were incubated in quadruple for 72 h. Thereafter, a 10 μL CCK8 solution was added to each well. After a 3 h incubation at 37 °C, the plates were read for absorbance at 450 nm and 650 nm using a SpectraMax Molecular Devices microplate reader. The final data were calibrated by OD450 nm-OD650 nm. The inhibition rates of proliferation were calculated with the following equation:Inhibition ratio = (ODDMSO-ODCompd)/(ODDMSO-ODblank) × 100%.(1)\n(§2) The concentrations of the compounds that inhibited cell growth by 50% (IC50) were calculated using GraphPad Prism version 5.0. NVP-2 was used as a positive control."}, "[2]": {"target": "T1, SHP2 (Homo sapiens, UniProt Q06124)", "T1 sequence (Q06124 1-593)": "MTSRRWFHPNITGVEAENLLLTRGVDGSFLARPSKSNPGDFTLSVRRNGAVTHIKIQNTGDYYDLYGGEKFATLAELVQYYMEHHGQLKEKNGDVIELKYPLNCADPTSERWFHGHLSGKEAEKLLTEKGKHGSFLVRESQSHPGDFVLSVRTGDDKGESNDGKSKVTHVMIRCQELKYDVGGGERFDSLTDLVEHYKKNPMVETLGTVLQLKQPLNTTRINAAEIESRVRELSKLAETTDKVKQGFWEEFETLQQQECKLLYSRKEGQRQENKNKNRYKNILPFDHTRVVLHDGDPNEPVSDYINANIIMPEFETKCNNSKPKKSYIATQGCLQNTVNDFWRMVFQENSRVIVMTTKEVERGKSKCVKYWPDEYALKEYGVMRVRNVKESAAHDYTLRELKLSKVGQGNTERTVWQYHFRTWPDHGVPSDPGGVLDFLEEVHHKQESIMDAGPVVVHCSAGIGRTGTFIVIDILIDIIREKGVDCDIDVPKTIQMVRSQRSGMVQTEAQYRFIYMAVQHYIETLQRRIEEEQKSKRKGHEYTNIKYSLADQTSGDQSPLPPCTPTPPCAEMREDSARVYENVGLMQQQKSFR", "assay": "SHP2 enzyme assay (DiFMUP fluorogenic substrate), activation", "assay_type": "biochemical", "protocol": "(§3) The proteins SHP1 and SHP2, containing a GST-tag, were expressed in E. coli. 6,8-Difluoro-4-methylumbelliferyl phosphate (DiFMUP) was used as the fluorogenic substrate. Fluorescence data were collected by the Envision (PerkinElmer, Waltham, MA, USA) plate reader, using excitation and emission wavelengths of 358 and 455 nm, respectively. A sigmoidal dose-response curve was fitted to the data, and the EC50 values were calculated using GraphPad Prism. In the data processing, the fitting and curves were calculated using nonlinear regression, and the fold value of the compound was calculated using the software GraphPad Prism 8. The folds were obtained according to the equation: Y = Bottom + (Top-Bottom)/(1 + 10^((LogEC50-X) × HillSlope)). The data represent mean values ± standard error of the mean (SEM) of eight-point experiments, each performed in triplicates from three independent experiments."}, "[3]": {"test_system": "acute promyelocytic leukemia (APL) cell line NB4", "assay": "CCK8 cell viability assay, NB4", "assay_type": "cell-based", "settings": "Homo sapiens, NB-4, NB4 cells, 72 h", "protocol": "as §1, §2"}, "[4]": {"target": "SHP1 (Homo sapiens, UniProt P29350)", "sequence (P29350 whole entry)": "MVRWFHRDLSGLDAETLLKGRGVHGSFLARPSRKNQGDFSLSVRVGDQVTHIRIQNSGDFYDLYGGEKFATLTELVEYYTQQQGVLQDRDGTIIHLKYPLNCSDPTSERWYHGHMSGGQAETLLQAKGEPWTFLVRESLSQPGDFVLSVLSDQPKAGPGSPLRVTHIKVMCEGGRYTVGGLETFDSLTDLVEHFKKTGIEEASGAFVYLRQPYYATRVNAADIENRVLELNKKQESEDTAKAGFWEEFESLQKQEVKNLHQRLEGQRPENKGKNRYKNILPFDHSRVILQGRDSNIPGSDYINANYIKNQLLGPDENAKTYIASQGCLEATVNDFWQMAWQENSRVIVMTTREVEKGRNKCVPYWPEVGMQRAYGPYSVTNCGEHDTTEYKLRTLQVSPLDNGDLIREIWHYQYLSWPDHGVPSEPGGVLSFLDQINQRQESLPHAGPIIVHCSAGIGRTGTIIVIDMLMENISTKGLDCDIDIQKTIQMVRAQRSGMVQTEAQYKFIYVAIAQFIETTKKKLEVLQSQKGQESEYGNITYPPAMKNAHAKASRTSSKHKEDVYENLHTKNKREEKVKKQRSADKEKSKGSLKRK", "assay": "SHP1 enzyme assay (DiFMUP fluorogenic substrate), activation", "assay_type": "biochemical", "from_the_text": "The SHP1-activating effects of the synthetic compounds were examined by the 6,8-difluoro-4-methylumbelliferyl phosphate (DiFMUP) assay.\nas §3"}, "[5]": {"test_system": "acute lymphoblastic leukemia (ALL) cell line RS4;11", "assay": "CCK8 cell viability assay, RS4;11", "assay_type": "cell-based", "settings": "Homo sapiens, RS4-11, 72 h, RS4;11 cells", "protocol": "as §1, §2"}},
  "data": [
    {"compound": "C[C@H](COc1ccc(NC(=O)Nc2ccc(Cl)c(C(F)(F)F)c2)cc1)[C@H]1CCC2C3CC=C4C(C)(C)C(N)CC[C@]4(C)C3CC[C@@]21C", "note": "(stereo partly drawn) [Compound 5ba]", "values": [
      {"measurement": "IC50", "setting": "[1]", "result": "5.51 ± 0.23", "unit": "µM"},
      {"measurement": "EC50", "setting": "[2]; DiFMUP assay", "result": "> 50", "unit": "µM"},
      {"measurement": "selectivity for SHP1 over SHP2", "setting": "[2]; ratio of EC50 values, SHP2 vs SHP1", "result": "more than 32 fold"},
      {"measurement": "IC50", "setting": "[3]", "result": "3.74 ± 0.39", "unit": "µM"},
      {"measurement": "EC50", "setting": "[4]; DiFMUP assay, mean ± SEM", "result": "1.54 ± 0.24", "unit": "µM"},
      {"measurement": "Maximum Activation Fold", "setting": "[4]; DiFMUP assay, mean ± SEM", "result": "7.63 ± 0.20", "unit": "fold"},
      {"measurement": "increase in potency compared to 5aw", "setting": "[4]; SHP1 EC50 ratio vs 5aw", "result": "~23", "unit": "times"},
      {"measurement": "IC50", "setting": "[5]", "result": "4 ± 0.22", "unit": "µM"},
      {"measurement": "melting point", "result": "197.1 to 198.6", "unit": "°C"}
    ]}
  ]
}
